Test results as given in article PMC6439253, “Complete NMR chemical shift assignments of odorant binding protein 22 from the yellow fever mosquito, Aedes aegypti, bound to arachidonic acid” (Biomolecular Nmr Assignments, 2019).

Target: T1, AeOBP22 (odorant binding protein 22) (Aedes aegypti, UniProt Q1HRL7)
T1 construct: mature form, residues 17-138, signal peptide (1-16) removed, added N-terminal initiator Met, no tags (123 residues); monomer; 13C/15N labelled for NMR
T1 sequence (Q1HRL7 17-138): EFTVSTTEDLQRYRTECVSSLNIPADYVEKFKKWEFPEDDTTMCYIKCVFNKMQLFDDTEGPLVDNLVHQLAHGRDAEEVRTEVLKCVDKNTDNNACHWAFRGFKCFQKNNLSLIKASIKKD
Assay: fluorescence-based binding assay (preliminary); binding confirmed by NMR

CCCCC/C=C\C/C=C\C/C=C\C/C=C\CCCC(=O)O [arachidonic acid]
Kd: ~230 nM
